Reference: ChEMBL document CHEMBL5303304, “EUbOPEN Chemogenomics Library - IncuCyte” (2023)

What was measured:
Type in all cases: toxicity, cell-based
[1] = test system: Fibroblast; test: Incucyte cell viability with human fibroblast; settings: 10 µM, compound concentration 10 uM
[2] = test system: HEK-293T; test: Incucyte cell viability with HEK293T; settings: human, 10 µM, compound concentration 10 uM
[3] = test system: U2OS; test: Incucyte cell viability with U2OS; settings: human, 10 µM, compound concentration 10 uM
Also: unitless GR value; below 1 slowed growth and below 0 cell loss.

SMILES | Growth Rate ([1]; 12 h, replicate number 1) | Growth Rate ([1]; 18 h, replicate number 1) | Growth Rate ([2]; 0 h, replicate number 2) | Growth Rate ([2]; 6 h, replicate number 1) | Growth Rate ([2]; 6 h, replicate number 2) | Growth Rate ([2]; 12 h, replicate number 1) | Growth Rate ([2]; 12 h, replicate number 2) | Growth Rate ([2]; 18 h, replicate number 1) | Growth Rate ([2]; 18 h, replicate number 2) | Growth Rate ([2]; 24 h, replicate number 1) | Growth Rate ([2]; 24 h, replicate number 2) | Growth Rate ([3]; 6 h, replicate number 1) | Growth Rate ([3]; 6 h, replicate number 2) | Growth Rate ([3]; 12 h, replicate number 2) | Growth Rate ([3]; 18 h, replicate number 2) | Growth Rate ([3]; 24 h, replicate number 2) | Growth Rate ([1]; 6 h, replicate number 2) | Growth Rate ([1]; 12 h, replicate number 2) | Growth Rate ([1]; 24 h, replicate number 2) | Growth Rate ([3]; 0 h, replicate number 2) | further results
CC(C1CC2CCC1C2)n1c(S)nnc1-c1ccco1 (stereo not drawn) | -1 | -0.08 | 0.53 | 0.59 | 0.46 | 0.81 | 0.63 | 0.69 | 0.74 | 0.75 | 0.81 | 0.78 | 0.22 | 0.67 | 0.78 | 0.89 |  |  |  |  | Growth Rate ([3]; 12 h, replicate number 1): 0.97
CCCCCN1C(=O)C2(COc3cc4c(cc32)OCO4)c2ccccc21 (stereo not drawn) |  | -0.52 | 0.62 | 0.51 | 0.92 |  |  |  |  |  |  |  | 0.76 | 0.8 | 0.98 | 0.88 | -0.97 | 0.76 | 0.74 | -1 | Growth Rate ([1]; 18 h, replicate number 2): 0.91; Growth Rate ([1]; 24 h, replicate number 1): 0.82; Growth Rate ([3]; 0 h, replicate number 1): -0.63
CCN(c1ccccc1)c1cc(NC)[n+](C)c(C)n1.[Cl-] |  | -0.22 | 0.56 | 0.95 |  | 0.84 |  | 0.58 | 0.99 | 0.79 |  | 0.41 | 0.69 | 0.84 | 0.83 |  | -1 | 0.8 | 0.91 | -0.9 | Growth Rate ([1]; 0 h, replicate number 1): -0.7; Growth Rate ([1]; 24 h, replicate number 1): 0.44; Growth Rate ([3]; 24 h, replicate number 1): 0.87
C[C@@H](CN1CCC(Cc2ccccc2)CC1)[C@@H](O)c1ccc(O)cc1 | -0.59 |  | 0.98 |  | 0.36 |  | 0.86 |  |  |  |  | 0.07 |  |  | 0.99 |  | -0.45 | 0.48 | 0.68 | -0.81 | Growth Rate ([1]; 6 h, replicate number 1): -0.49; Growth Rate ([1]; 18 h, replicate number 2): 0.53; Growth Rate ([1]; 24 h, replicate number 1): 0.78; Growth Rate ([3]; 0 h, replicate number 1): -0.54; Growth Rate ([3]; 12 h, replicate number 1): 0.85; Growth Rate ([3]; 18 h, replicate number 1): 0.98; Growth Rate ([3]; 24 h, replicate number 1): 0.96
CC(C)(C)C1CCc2c(sc(NC(=O)c3ccco3)c2C(=O)O)C1 (stereo not drawn) | -1 | -0.68 | 0.67 | -0.05 | 0 | -0.04 | -0.11 | -0.24 | -0.17 | -0.21 | -0.13 | -0.02 | 0.95 | 0.8 | 0.79 | 0.84 | -0.97 | 0.65 |  | -1 | Growth Rate ([1]; 0 h, replicate number 1): -0.35; Growth Rate ([1]; 0 h, replicate number 2): -0.91; Growth Rate ([1]; 6 h, replicate number 1): 0.79
COc1cc([N+](=O)[O-])ccc1NC(=O)c1ccccc1O |  |  | 0.91 | -0.49 | -0.12 | -0.12 | -0.05 | -0.01 | -0.02 | 0.08 | -0.01 | 0.2 | 0.94 | 0.63 | 0.46 | 0.55 |  | 0.57 | 0.64 | -0.67 | Growth Rate ([1]; 0 h, replicate number 2): 0.04; Growth Rate ([1]; 6 h, replicate number 1): -0.98; Growth Rate ([1]; 18 h, replicate number 2): 0.65; Growth Rate ([3]; 0 h, replicate number 1): 0.1; Growth Rate ([3]; 12 h, replicate number 1): 0.27; Growth Rate ([3]; 18 h, replicate number 1): 0.4; Growth Rate ([3]; 24 h, replicate number 1): 0.48
